# Test results published in patent publication US5061794A, “Cephalosporin derivatives, and antibacterial agents” (priority 1986, dated 1991).
# Read-outs that look alike come from different tables or passages of the source.
# Legend:
# E. coli CSH(RE45) = test: microbe, parasite or virus in culture; type: cell-based; details: 10^6 CFU/ml; for Minimum Inhibitory Concentration (MIC): *E. coli CSH(RE45), lactamase-producing strain
# Outline: (§1)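 Agar dilution: MH agar + graded drug conc.; inoculum 10^6 CFU/ml (overnight MH broth culture, one loopful); 37° C., 16 h; MIC, μg/ml.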
# E. coli CSH2 (RK1) = test: microbe, parasite or virus in culture; type: cell-based; details: 10^6 CFU/ml; for Minimum Inhibitory Concentration (MIC): *E. coli CSH2 (RK1), lactamase-producing strain
# Outline: as §1
# E. cloacae 963 = test: in vitro antibacterial activity, agar plate dilution method (MIC); type: cell-based; details: 10^6 CFU/ml
# Outline: as §1
# E. cloacae Nek 39 = test: as above; type: cell-based; details: 10^6 CFU/ml; for MIC: Enterobacter cloacae, NEK39, 16 h, read-out: Minimum Inhibitory Concentration (MIC), *E. cloacae Nek 39, lactamase-producing strain; for Minimum Inhibitory Concentration (MIC): *E. cloacae Nek 39, lactamase-producing strain
# Outline: as §1
# E. coli GN5482 = test: as above; type: cell-based; details: for MIC: Escherichia coli, GN5482, 16 h
# Outline: as §1
# E. coli NIHJ JC2 = test: as above; type: cell-based; details: for Minimum Inhibitory Concentration (MIC): E. coli NIHJ JC2, 10^6 CFU/ml, 37° C., 16 hours; for MIC: Escherichia coli, NIHJJC2, 16 h, read-out: Minimum Inhibitory Concentration (MIC), E. coli NIHJ JC2, 10^6 CFU/ml, 37° C.
# Outline: as §1
# K. oxytoca GN10650 = test: as above; type: cell-based; details: 10^6 CFU/ml; for Minimum Inhibitory Concentration (MIC): *K. oxytoca GN10650, lactamase-producing strain
# Outline: as §1
# K. pneumoniae No. 42 = test: as above; type: cell-based; details: 10^6 CFU/ml; for Minimum Inhibitory Concentration (MIC): *K. pneumoniae No. 42, lactamase-producing strain
# Outline: as §1
# K. pneumoniae PCI-602 = test: as above; type: cell-based; details: 10^6 CFU/ml; for MIC: Klebsiella pneumoniae, PCI602, 16 h
# Outline: as §1
# M. morganii GN5407 = test: as above; type: cell-based; details: 10^6 CFU/ml; for Minimum Inhibitory Concentration (MIC): *M. morganii GN5407, lactamase-producing strain
# Outline: as §1
# P. vulgaris HX-19 = test: as above; type: cell-based; details: P. vulgaris HX-19, 10^6 CFU/ml
# Outline: as §1
# P. vulgaris No. 33 = test: as above; type: cell-based; details: 10^6 CFU/ml; for Minimum Inhibitory Concentration (MIC): *P. vulgaris No. 33, lactamase-producing strain
# Outline: as §1
# S. aureus 209P NIHJ-JC1 = test: as above; type: cell-based; details: for MIC: Staphylococcus aureus, 16 h, read-out: Minimum Inhibitory Concentration (MIC)
# Outline: as §1
# S. marcescens IAM 1184 = test: as above; type: cell-based; details: Serratia marcescens, IAM1184, 16 h, read-out: Minimum Inhibitory Concentration (MIC)
# Outline: as §1
# S. marcescens No. 16-2 = test: as above; type: cell-based; details: for MIC: Serratia marcescens, NO.162, 16 h
# Outline: as §1
# Ps. aeruginosa AK 109 = test: as above; type: cell-based, Pseudomonas aeruginosa; details: for MIC: Pseudomonas aeruginosa, AK109, 16 h, read-out: Minimum Inhibitory Concentration (MIC)
# Outline: as §1
# Ps. aeruginosa AKR17 = test: as above; type: cell-based, Pseudomonas aeruginosa; details: for Minimum Inhibitory Concentration (MIC): Ps. aeruginosa AKR17, 10^6 CFU/ml; for MIC: Pseudomonas aeruginosa, AKR17, 16 h, read-out: Minimum Inhibitory Concentration (MIC)
# Outline: as §1
# Ps. aeruginosa IF03445 = test: as above; type: cell-based, Pseudomonas aeruginosa; details: 10^6 CFU/ml; for Minimum Inhibitory Concentration (MIC): Ps. aeruginosa IF03445
# Outline: as §1
# Ps. cepacia 23 = test: as above; type: cell-based, Pseudomonas cepacia; details: Ps. cepacia 23, 10^6 CFU/ml; for MIC: Burkholderia cepacia, 16 h, read-out: Minimum Inhibitory Concentration (MIC)
# Outline: as §1
# A. calcoaceticus No. 4 = test: as above; type: cell-based, Acinetobacter calcoaceticus; details: 10^6 CFU/ml; for MIC: Acinetobacter calcoaceticus, NO.4, 16 h
# Outline: as §1
# [1] = S. aureus 209P NIHJ-JC1, 10^6 CFU/ml, 37° C., 16 hours
# [2] = S. marcescens IAM 1184, 10^6 CFU/ml
# [3] = read-out: Minimum Inhibitory Concentration (MIC), *S. marcescens No. 16-2, lactamase-producing strain, 10^6 CFU/ml
# [4] = Ps. aeruginosa AK 109, 10^6 CFU/ml
# [5] = read-out: Minimum Inhibitory Concentration (MIC)
# [6] = Enterobacter cloacae, 963, 16 h, read-out: Minimum Inhibitory Concentration (MIC), E. cloacae 963
# [7] = read-out: Minimum Inhibitory Concentration (MIC), K. pneumoniae PCI-602
SMILES,Minimum Inhibitory Concentration (MIC) (E. coli CSH(RE45)) [mg/L],Minimum Inhibitory Concentration (MIC) (E. coli CSH2 (RK1)) [mg/L],MIC (E. cloacae Nek 39) [mg/L],Minimum Inhibitory Concentration (MIC) (E. coli NIHJ JC2) [mg/L],Minimum Inhibitory Concentration (MIC) (K. oxytoca GN10650) [mg/L],Minimum Inhibitory Concentration (MIC) (K. pneumoniae No. 42) [mg/L],Minimum Inhibitory Concentration (MIC) (M. morganii GN5407) [mg/L],Minimum Inhibitory Concentration (MIC) (P. vulgaris HX-19) [mg/L],Minimum Inhibitory Concentration (MIC) (P. vulgaris No. 33) [mg/L],Minimum Inhibitory Concentration (MIC) (S. aureus 209P NIHJ-JC1; [1]) [mg/L],MIC (S. marcescens IAM 1184; [2]) [mg/L],MIC (S. marcescens No. 16-2; [3]) [mg/L],Minimum Inhibitory Concentration (MIC) (Ps. aeruginosa AK 109; [4]) [mg/L],Minimum Inhibitory Concentration (MIC) (Ps. aeruginosa AKR17) [mg/L],Minimum Inhibitory Concentration (MIC) (Ps. aeruginosa IF03445) [mg/L],MIC (Ps. cepacia 23) [mg/L],Minimum Inhibitory Concentration (MIC) (E. cloacae Nek 39) [mg/L],MIC (E. coli NIHJ JC2) [mg/L],Minimum Inhibitory Concentration (MIC) (A. calcoaceticus No. 4; A. calcoaceticus No. 4) [mg/L],MIC (E. cloacae 963; [6]) [mg/L],other results
"Nc1nc(C(=NOC(C(=O)O)c2ccccc2)C(=O)NC2C(=O)N3C(C(=O)O)=C(CSc4nc(C(=O)O)c(-c5ccc(O)c(O)c5)s4)CSC23)cs1 (single isomer, unassigned) [Example 51 DA]",0.1,0.05,0.1,3.12,0.1,0.2,0.2,0.2,0.39,100,0.1,1.56,1.56,1.56,1.56,< 0.006,,,,,"MIC (E. cloacae 963; Enterobacter cloacae, 16 h, E. cloacae 963, read-out: Minimum Inhibitory Concentration (MIC)): 0.2 mg/L; MIC (E. coli GN5482; read-out: Minimum Inhibitory Concentration (MIC), *E. coli GN5482, lactamase-producing strain, 10^6 CFU/ml): 1.56 mg/L; Minimum Inhibitory Concentration (MIC) (K. pneumoniae PCI-602; K. pneumoniae PCI-602): 0.0125 mg/L; MIC (A. calcoaceticus No. 4; read-out: Minimum Inhibitory Concentration (MIC), A. calcoaceticus No. 4): 0.1 mg/L"
"CC(=O)Oc1ccc(-c2nc(SCC3=C(C(=O)O)N4C(=O)C(NC(=O)C(=NOC(C(=O)O)c5ccccc5)c5csc(N)n5)C4SC3)sc2CC(=O)O)cc1OC(C)=O (single isomer, unassigned) [Example 61 DB]",12.5,0.05,,,0.2,0.39,0.39,0.05,0.2,50,,,1.56,0.78,3.12,,0.39,3.12,0.39,,"Minimum Inhibitory Concentration (MIC) (E. cloacae 963; E. cloacae 963): 0.78 mg/L; Minimum Inhibitory Concentration (MIC) (E. coli GN5482; *E. coli GN5482, lactamase-producing strain, 10^6 CFU/ml): 1.56 mg/L; MIC (K. pneumoniae PCI-602; K. pneumoniae PCI-602, read-out: Minimum Inhibitory Concentration (MIC)): 0.025 mg/L; MIC (S. marcescens IAM 1184): 0.39 mg/L; MIC (S. marcescens No. 16-2; [5]): 3.12 mg/L; Minimum Inhibitory Concentration (MIC) (Ps. cepacia 23): < 0.006 mg/L"
"Nc1nc(/C(=N/OC2(C(=O)O)CC2)C(=O)N[C@@H]2C(=O)N3C(C(=O)O)=C(CSc4nnc(-c5ccc(O)c(O)c5)o4)CS[C@H]23)cs1 [Ex. 12, disodium 7β-[2-(2-aminothiazol-4-yl)-2-(1-carboxylate-1-cyclopropoxyimino)acetamido]-3-[5-(3,4-dihydroxvphenyl)-1,3,4-oxadiazol-2-vl]thiomethyl-3-cephem-4-carboxylate]",,,0.025,,,,,,,,0.0125,1.56,,,,< 0.006,,0.05,,0.05,"MIC (E. coli CSH(RE45); Escherichia coli, 16 h, read-out: Minimum Inhibitory Concentration (MIC), *E. coli CSH(RE45), lactamase-producing strain): < 0.006 mg/L; MIC (E. coli CSH2 (RK1); Escherichia coli, 16 h, read-out: Minimum Inhibitory Concentration (MIC), *E. coli CSH2 (RK1), lactamase-producing strain): < 0.006 mg/L; MIC (E. coli GN5482; [5]): 0.2 mg/L; MIC (K. oxytoca GN10650; Klebsiella oxytoca, GN10650, 16 h, read-out: Minimum Inhibitory Concentration (MIC), *K. oxytoca GN10650, lactamase-producing strain): 0.025 mg/L; MIC (K. pneumoniae No. 42; Klebsiella pneumoniae, NO.42, 16 h, read-out: Minimum Inhibitory Concentration (MIC), *K. pneumoniae No. 42, lactamase-producing strain): 0.025 mg/L; MIC (K. pneumoniae PCI-602; [7]): < 0.006 mg/L; MIC (M. morganii GN5407; Morganella morganii, GN5407, 16 h, read-out: Minimum Inhibitory Concentration (MIC), *M. morganii GN5407, lactamase-producing strain): 0.025 mg/L; MIC (P. vulgaris HX-19; Proteus vulgaris, HX19, 16 h, read-out: Minimum Inhibitory Concentration (MIC)): < 0.006 mg/L; MIC (P. vulgaris No. 33; Proteus vulgaris, NO.33, 16 h, read-out: Minimum Inhibitory Concentration (MIC), *P. vulgaris No. 33, lactamase-producing strain): 0.025 mg/L; MIC (S. aureus 209P NIHJ-JC1): 12.5 mg/L; MIC (Ps. aeruginosa AK 109; [4]): 0.2 mg/L; MIC (Ps. aeruginosa AKR17): 3.12 mg/L; MIC (Ps. aeruginosa IF03445; Pseudomonas aeruginosa, IF03445, 16 h, read-out: Minimum Inhibitory Concentration (MIC), Ps. aeruginosa IF03445): 0.39 mg/L; MIC (A. calcoaceticus No. 4; A. calcoaceticus No. 4, read-out: Minimum Inhibitory Concentration (MIC)): 0.05 mg/L"
"CC(=O)Oc1ccc(-c2nc(SCC3=C(C(=O)O)N4C(=O)C(NC(=O)C(=NOC(C(=O)O)c5ccccc5)c5csc(N)n5)C4SC3)sc2CC(=O)O)cc1OC(C)=O (single isomer, unassigned) [Example 61 DA]",3.12,0.0125,,0.78,0.05,0.1,0.05,< 0.006,0.025,,0.05,,,,0.39,< 0.006,0.1,,0.1,0.39,"MIC (E. coli GN5482; [5]): 0.39 mg/L; MIC (K. pneumoniae PCI-602; [7]): < 0.006 mg/L; MIC (S. aureus 209P NIHJ-JC1; [1]): 25 mg/L; Minimum Inhibitory Concentration (MIC) (S. marcescens No. 16-2; *S. marcescens No. 16-2, lactamase-producing strain, 10^6 CFU/ml): 0.78 mg/L; MIC (Ps. aeruginosa AK 109): 0.39 mg/L; MIC (Ps. aeruginosa AKR17): 0.39 mg/L"
